From the NIST ThermoML archive (doi:10.1016/j.jct.2007.03.010)

Assay: excess molar enthalpy (molar enthalpy of mixing); xn = mol fraction of the nth substance listed
Conditions: 101 kPa, Liquid, Calvet calorimetry

NCCNCCO [N-(2-aminoethyl)ethanolamine] + O
Conditions | excess molar enthalpy [kcal/mol]
298.15 K, x1 = 0.0298 | -0.184
298.15 K, x1 = 0.0496 | -0.304
298.15 K, x1 = 0.0699 | -0.409
298.15 K, x1 = 0.0992 | -0.536
298.15 K, x1 = 0.1503 | -0.717
298.15 K, x1 = 0.2015 | -0.824
298.15 K, x1 = 0.2962 | -0.934
298.15 K, x1 = 0.2982 | -0.936
298.15 K, x1 = 0.3484 | -0.958
298.15 K, x1 = 0.3994 | -0.945
298.15 K, x1 = 0.4454 | -0.901
298.15 K, x1 = 0.4962 | -0.834
298.15 K, x1 = 0.505 | -0.821
298.15 K, x1 = 0.5922 | -0.685
298.15 K, x1 = 0.6969 | -0.524
298.15 K, x1 = 0.77 | -0.409
298.15 K, x1 = 0.9077 | -0.186
313.15 K, x1 = 0.0299 | -0.224
313.15 K, x1 = 0.0498 | -0.315
313.15 K, x1 = 0.0701 | -0.411
313.15 K, x1 = 0.1 | -0.559
313.15 K, x1 = 0.1495 | -0.729
313.15 K, x1 = 0.2002 | -0.865
313.15 K, x1 = 0.2956 | -0.984
313.15 K, x1 = 0.3547 | -1.01
313.15 K, x1 = 0.4001 | -0.992
313.15 K, x1 = 0.4461 | -0.95
313.15 K, x1 = 0.4893 | -0.904
313.15 K, x1 = 0.6009 | -0.752
313.15 K, x1 = 0.6723 | -0.638
313.15 K, x1 = 0.7961 | -0.41
313.15 K, x1 = 0.9041 | -0.212
323.15 K, x1 = 0.0301 | -0.147
323.15 K, x1 = 0.0498 | -0.246
323.15 K, x1 = 0.0697 | -0.381
323.15 K, x1 = 0.0992 | -0.487
323.15 K, x1 = 0.1491 | -0.697
323.15 K, x1 = 0.1988 | -0.816
323.15 K, x1 = 0.3014 | -0.912
323.15 K, x1 = 0.3527 | -0.941
323.15 K, x1 = 0.3958 | -0.936
323.15 K, x1 = 0.4971 | -0.86
323.15 K, x1 = 0.5908 | -0.723
323.15 K, x1 = 0.7056 | -0.536
323.15 K, x1 = 0.7484 | -0.463
323.15 K, x1 = 0.8999 | -0.196

NCCCO [3-amino-1-propanol] + O
Conditions | excess molar enthalpy [kcal/mol]
298.15 K, x1 = 0.0299 | -0.0966
298.15 K, x1 = 0.0705 | -0.222
298.15 K, x1 = 0.1203 | -0.364
298.15 K, x1 = 0.2 | -0.509
298.15 K, x1 = 0.2982 | -0.598
298.15 K, x1 = 0.3452 | -0.62
298.15 K, x1 = 0.4067 | -0.625
298.15 K, x1 = 0.4989 | -0.588
298.15 K, x1 = 0.593 | -0.519
298.15 K, x1 = 0.7515 | -0.366
298.15 K, x1 = 0.8969 | -0.17
313.15 K, x1 = 0.0297 | -0.115
313.15 K, x1 = 0.0702 | -0.245
313.15 K, x1 = 0.12 | -0.375
313.15 K, x1 = 0.2007 | -0.504
313.15 K, x1 = 0.3015 | -0.607
313.15 K, x1 = 0.3458 | -0.629
313.15 K, x1 = 0.3982 | -0.633
313.15 K, x1 = 0.5034 | -0.597
313.15 K, x1 = 0.6045 | -0.508
313.15 K, x1 = 0.7564 | -0.329
313.15 K, x1 = 0.9333 | -0.115
323.15 K, x1 = 0.0298 | -0.154
323.15 K, x1 = 0.0718 | -0.29
323.15 K, x1 = 0.1192 | -0.397
323.15 K, x1 = 0.1996 | -0.512
323.15 K, x1 = 0.3018 | -0.608
323.15 K, x1 = 0.3493 | -0.632
323.15 K, x1 = 0.3947 | -0.637
323.15 K, x1 = 0.5038 | -0.597
323.15 K, x1 = 0.605 | -0.517
323.15 K, x1 = 0.7594 | -0.34
323.15 K, x1 = 0.8801 | -0.18

OCCNCCO [diethanolamine] + O
298.15 K
Conditions | excess molar enthalpy [kcal/mol]
x1 = 0.0553 | -0.164
x1 = 0.0732 | -0.214
x1 = 0.1001 | -0.273
x1 = 0.2005 | -0.425
x1 = 0.2943 | -0.497
x1 = 0.34 | -0.51
x1 = 0.4007 | -0.498
x1 = 0.4969 | -0.458
x1 = 0.5945 | -0.385
x1 = 0.6597 | -0.332
x1 = 0.7421 | -0.261
x1 = 0.8312 | -0.172
x1 = 0.9283 | -0.0722

CN(CCO)CCO [N-methyldiethanolamine] + O
313.15 K
Conditions | excess molar enthalpy [kcal/mol]
x1 = 0.1004 | -0.337
x1 = 0.1501 | -0.431
x1 = 0.1986 | -0.496
x1 = 0.2593 | -0.543
x1 = 0.3681 | -0.552
x1 = 0.4312 | -0.535
x1 = 0.4941 | -0.495
x1 = 0.593 | -0.417
x1 = 0.7778 | -0.25
x1 = 0.8203 | -0.208
